{"source": "paper PMC8185074", "about": "“Anchor extension: a structure-guided approach to design cyclic peptides targeting enzyme active sites” (Nature Communications, 2021)", "format_in_all_cases": "biochemical", "key": {"[1]": {"molecular_target": "T1, HDAC2 (Homo sapiens, UniProt Q92769)", "T1 construct": "purchased Reaction Biology Corporation (assay run by the CRO)", "T1 sequence (Q92769 whole entry)": "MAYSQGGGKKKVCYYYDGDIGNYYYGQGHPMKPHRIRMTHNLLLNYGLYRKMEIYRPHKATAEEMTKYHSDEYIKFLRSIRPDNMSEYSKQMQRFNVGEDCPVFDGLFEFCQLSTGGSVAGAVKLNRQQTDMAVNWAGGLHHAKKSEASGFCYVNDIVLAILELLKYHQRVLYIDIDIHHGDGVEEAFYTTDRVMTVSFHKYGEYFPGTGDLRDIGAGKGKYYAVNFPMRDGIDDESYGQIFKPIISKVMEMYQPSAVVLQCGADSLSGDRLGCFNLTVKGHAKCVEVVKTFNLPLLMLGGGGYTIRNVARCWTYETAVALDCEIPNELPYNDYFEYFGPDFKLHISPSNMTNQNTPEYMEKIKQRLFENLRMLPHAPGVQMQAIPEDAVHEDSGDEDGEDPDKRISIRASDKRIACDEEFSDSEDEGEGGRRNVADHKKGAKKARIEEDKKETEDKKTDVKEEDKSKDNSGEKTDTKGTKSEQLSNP", "experiment": "HDAC2 inhibition, full IC50 measurement (Reaction Biology; fluorogenic p53 peptide RHKK(Ac)AMC)", "outline": "(§1)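 Deacetylation of 50 μM RHKK(Ac)AMC is measured after 1 h at 30 °C in pH 8.0 Tris buffer (1% DMSO, 1 mg/ml BSA). Developer ends the reaction; the post-plateau 360/460 nm signal is fitted to IC50, averaging replicate measurements.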"}, "[2]": {"molecular_target": "T2, HDAC1 (Homo sapiens, UniProt Q13547)", "T2 construct": "purchased Reaction Biology Corporation (assay run by the CRO)", "T2 sequence (Q13547 whole entry)": "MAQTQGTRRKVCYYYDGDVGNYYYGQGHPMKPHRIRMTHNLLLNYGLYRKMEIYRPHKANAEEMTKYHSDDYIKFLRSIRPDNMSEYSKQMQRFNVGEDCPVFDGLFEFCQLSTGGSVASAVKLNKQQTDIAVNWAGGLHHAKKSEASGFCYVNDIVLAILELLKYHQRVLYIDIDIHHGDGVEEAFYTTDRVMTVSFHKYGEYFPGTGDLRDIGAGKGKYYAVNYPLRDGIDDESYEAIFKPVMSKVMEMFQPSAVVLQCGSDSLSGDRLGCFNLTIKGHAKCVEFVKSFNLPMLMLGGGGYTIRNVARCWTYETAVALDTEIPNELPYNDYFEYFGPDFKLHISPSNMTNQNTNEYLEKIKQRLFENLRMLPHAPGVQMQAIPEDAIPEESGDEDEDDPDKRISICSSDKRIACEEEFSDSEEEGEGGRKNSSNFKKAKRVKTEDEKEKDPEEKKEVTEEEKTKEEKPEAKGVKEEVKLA", "experiment": "HDAC1 inhibition, full IC50 measurement (Reaction Biology; fluorogenic p53 peptide RHKK(Ac)AMC)", "settings": "t1/t2 replicates", "outline": "as §1"}, "[3]": {"molecular_target": "T3, HDAC8 (Homo sapiens, UniProt Q9BY41)", "T3 construct": "purchased Reaction Biology Corporation (assay run by the CRO)", "T3 sequence (Q9BY41 1-377)": "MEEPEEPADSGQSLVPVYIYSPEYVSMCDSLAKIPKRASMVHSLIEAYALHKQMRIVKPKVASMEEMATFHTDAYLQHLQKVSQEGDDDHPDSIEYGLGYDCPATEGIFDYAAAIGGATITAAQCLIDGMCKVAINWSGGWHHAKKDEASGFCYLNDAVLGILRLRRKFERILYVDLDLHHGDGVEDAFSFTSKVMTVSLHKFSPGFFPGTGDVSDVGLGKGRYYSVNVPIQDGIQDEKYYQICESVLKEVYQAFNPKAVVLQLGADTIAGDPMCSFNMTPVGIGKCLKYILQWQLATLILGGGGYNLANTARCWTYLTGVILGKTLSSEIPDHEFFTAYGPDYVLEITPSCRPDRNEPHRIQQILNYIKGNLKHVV", "experiment": "HDAC8 inhibition, full IC50 measurement (Reaction Biology; fluorogenic p53 peptide RHKK(Ac)AMC)", "settings": "t1/t2 replicates", "outline": "as §1"}, "[4]": {"settings": "peptide conc. 1.00E-05 M, listed as des1.1.1_t1"}, "[5]": {"settings": "peptide conc. 1.00E-05 M, listed as des1.1.1_t2"}, "[6]": {"settings": "peptide conc. 1.11E-06 M, listed as des1.1.1_t1"}, "[7]": {"settings": "peptide conc. 1.11E-06 M, listed as des1.1.1_t2"}, "[8]": {"settings": "peptide conc. 1.23E-07 M, listed as des1.1.1_t1"}, "[9]": {"settings": "peptide conc. 1.23E-07 M, listed as des1.1.1_t2"}, "[10]": {"settings": "peptide conc. 1.37E-08 M, listed as des1.1.1_t1"}, "[11]": {"settings": "peptide conc. 1.37E-08 M, listed as des1.1.1_t2"}, "[12]": {"settings": "peptide conc. 1.52E-09 M, listed as des1.1.1_t1"}, "[13]": {"settings": "peptide conc. 1.52E-09 M, listed as des1.1.1_t2"}, "[14]": {"settings": "peptide conc. 3.33E-06 M, listed as des1.1.1_t1"}, "[15]": {"settings": "peptide conc. 3.33E-06 M, listed as des1.1.1_t2"}, "[16]": {"settings": "peptide conc. 3.70E-07 M, listed as des1.1.1_t1"}, "[17]": {"settings": "peptide conc. 3.70E-07 M, listed as des1.1.1_t2"}, "[18]": {"settings": "peptide conc. 4.12E-08 M, listed as des1.1.1_t1"}, "[19]": {"settings": "peptide conc. 4.12E-08 M, listed as des1.1.1_t2"}, "[20]": {"settings": "peptide conc. 4.57E-09 M, listed as des1.1.1_t1"}, "[21]": {"settings": "peptide conc. 4.57E-09 M, listed as des1.1.1_t2"}, "[22]": {"settings": "peptide conc. 5.08E-10 M, listed as des1.1.1_t1"}, "[23]": {"settings": "peptide conc. 5.08E-10 M, listed as des1.1.1_t2"}}, "note": "Peptide text beside a SMILES is read from it."}
{"smiles": "NCCCC[C@H]1NC(=O)[C@H](CCC(N)=O)NC(=O)[C@H](CCC(=O)O)NC(=O)[C@@H]2CCCN2C(=O)[C@H](CC(N)=O)NC(=O)[C@H](CCCCCS)NC(=O)CNC(=O)[C@H](Cc2c[nH]c3ccccc23)NC1=O", "note": "[des1.1.1, SHA-Asn-Pro-Glu-Gln-dLys-Trp-Gly] (HELM PEPTIDE1{E.Q.[dK].W.G.[O=C([C@H](CCCCCS)N[*:1])[*:2]].N.P}$PEPTIDE1,PEPTIDE1,1:R1-8:R2$$$V2.0)", "values": [{"measurement": "2-Selectivity: fold potency for HDAC2 over HDAC6", "setting": "[1]", "value": 0.17, "unit": "fold"}, {"measurement": "HDAC2 activity raw data (signal)", "setting": "[1]; Conc. 1.00E-05 M, t1", "value": 51389}, {"measurement": "HDAC2 activity raw data (signal)", "setting": "[1]; Conc. 1.11E-06 M, t1", "value": 176321}, {"measurement": "HDAC2 activity raw data (signal)", "setting": "[1]; Conc. 1.23E-07 M, t1", "value": 517115}, {"measurement": "HDAC2 activity raw data (signal)", "setting": "[1]; Conc. 1.23E-07 M, t2", "value": 516299}, {"measurement": "HDAC2 activity raw data (signal)", "setting": "[1]; Conc. 1.37E-08 M, t1", "value": 670648}, {"measurement": "HDAC2 activity raw data (signal)", "setting": "[1]; Conc. 1.37E-08 M, t2", "value": 890041}, {"measurement": "HDAC2 activity raw data (signal)", "setting": "[1]; Conc. 1.52E-09 M, t1", "value": 768698}, {"measurement": "HDAC2 activity raw data (signal)", "setting": "[1]; Conc. 1.52E-09 M, t2", "value": 986775}, {"measurement": "HDAC2 activity raw data (signal)", "setting": "[1]; Conc. 3.33E-06 M, t1", "value": 91275}, {"measurement": "HDAC2 activity raw data (signal)", "setting": "[1]; Conc. 3.70E-07 M, t1", "value": 346891}, {"measurement": "HDAC2 activity raw data (signal)", "setting": "[1]; Conc. 4.12E-08 M, t1", "value": 680634}, {"measurement": "HDAC2 activity raw data (signal)", "setting": "[1]; Conc. 4.12E-08 M, t2", "value": 655155}, {"measurement": "HDAC2 activity raw data (signal)", "setting": "[1]; Conc. 4.57E-09 M, t1", "value": 833526}, {"measurement": "HDAC2 activity raw data (signal)", "setting": "[1]; Conc. 4.57E-09 M, t2", "value": 959526}, {"measurement": "HDAC2 activity raw data (signal)", "setting": "[1]; Conc. 5.08E-10 M, t1", "value": 761364}, {"measurement": "HDAC2 activity raw data (signal)", "setting": "[1]; Conc. 5.08E-10 M, t2", "value": 1054303}, {"measurement": "HDAC1 activity raw data (signal)", "setting": "[2]; [4]", "value": 15449}, {"measurement": "HDAC1 activity raw data (signal)", "setting": "[2]; [5]", "value": 6031}, {"measurement": "HDAC1 activity raw data (signal)", "setting": "[2]; [6]", "value": 152129}, {"measurement": "HDAC1 activity raw data (signal)", "setting": "[2]; [7]", "value": 83277}, {"measurement": "HDAC1 activity raw data (signal)", "setting": "[2]; [8]", "value": 509662}, {"measurement": "HDAC1 activity raw data (signal)", "setting": "[2]; [9]", "value": 396625}, {"measurement": "HDAC1 activity raw data (signal)", "setting": "[2]; [10]", "value": 648866}, {"measurement": "HDAC1 activity raw data (signal)", "setting": "[2]; [11]", "value": 876365}, {"measurement": "HDAC1 activity raw data (signal)", "setting": "[2]; [12]", "value": 760286}, {"measurement": "HDAC1 activity raw data (signal)", "setting": "[2]; [13]", "value": 1050479}, {"measurement": "HDAC1 activity raw data (signal)", "setting": "[2]; [14]", "value": 53777}, {"measurement": "HDAC1 activity raw data (signal)", "setting": "[2]; [15]", "value": 31360}, {"measurement": "HDAC1 activity raw data (signal)", "setting": "[2]; [16]", "value": 243491}, {"measurement": "HDAC1 activity raw data (signal)", "setting": "[2]; [17]", "value": 191722}, {"measurement": "HDAC1 activity raw data (signal)", "setting": "[2]; [18]", "value": 677146}, {"measurement": "HDAC1 activity raw data (signal)", "setting": "[2]; [19]", "value": 657201}, {"measurement": "HDAC1 activity raw data (signal)", "setting": "[2]; [20]", "value": 723834}, {"measurement": "HDAC1 activity raw data (signal)", "setting": "[2]; [21]", "value": 981941}, {"measurement": "HDAC1 activity raw data (signal)", "setting": "[2]; [22]", "value": 712167}, {"measurement": "HDAC1 activity raw data (signal)", "setting": "[2]; [23]", "value": 1083035}, {"measurement": "HDAC8 activity raw data (signal)", "setting": "[3]; [4]", "value": 258617}, {"measurement": "HDAC8 activity raw data (signal)", "setting": "[3]; [5]", "value": 8333740}, {"measurement": "HDAC8 activity raw data (signal)", "setting": "[3]; [6]", "value": 532680}, {"measurement": "HDAC8 activity raw data (signal)", "setting": "[3]; [7]", "value": 26455057}, {"measurement": "HDAC8 activity raw data (signal)", "setting": "[3]; [8]", "value": 587120}, {"measurement": "HDAC8 activity raw data (signal)", "setting": "[3]; [9]", "value": 38904462}, {"measurement": "HDAC8 activity raw data (signal)", "setting": "[3]; [10]", "value": 802422}, {"measurement": "HDAC8 activity raw data (signal)", "setting": "[3]; [11]", "value": 44804049}, {"measurement": "HDAC8 activity raw data (signal)", "setting": "[3]; [12]", "value": 956971}, {"measurement": "HDAC8 activity raw data (signal)", "setting": "[3]; [13]", "value": 49754188}, {"measurement": "HDAC8 activity raw data (signal)", "setting": "[3]; [14]", "value": 289575}, {"measurement": "HDAC8 activity raw data (signal)", "setting": "[3]; [15]", "value": 18105294}, {"measurement": "HDAC8 activity raw data (signal)", "setting": "[3]; [16]", "value": 559845}, {"measurement": "HDAC8 activity raw data (signal)", "setting": "[3]; [17]", "value": 34440414}, {"measurement": "HDAC8 activity raw data (signal)", "setting": "[3]; [18]", "value": 916202}, {"measurement": "HDAC8 activity raw data (signal)", "setting": "[3]; [19]", "value": 43441318}, {"measurement": "HDAC8 activity raw data (signal)", "setting": "[3]; [20]", "value": 928568}, {"measurement": "HDAC8 activity raw data (signal)", "setting": "[3]; [21]", "value": 47580068}, {"measurement": "HDAC8 activity raw data (signal)", "setting": "[3]; [22]", "value": 688133}, {"measurement": "HDAC8 activity raw data (signal)", "setting": "[3]; [23]", "value": 50930211}]}
